Assay results published in article PMC10303371, “Activity and Selectivity of Novel Chemical Metallic Complexes with Potential Anticancer Effects on Melanoma Cells” (Molecules, 2023).
Read-outs that look alike come from different tables or passages of the source.

Legend:
[1] = system: MeWo cells; experiment: MTT cell viability assay on 2D MeWo culture; assay type: cell-based, human; details: for inhibition of MeWo viability / decrease in cell viability: 20 μM; for inhibition of MeWo viability / change of cell viability (in words): 24 h
Procedure: (§1) IC50 values for MeWo cells were calculated with GraphPad Prism software (6.0 for Windows, LLC, San Diego, CA, USA).
(§2) Then, the supernatant was removed and 100 μL of dimethyl sulfoxide (DMSO) was added to solubilize formazan crystals. The absorbance was measured at 490 nm using a microplate reader (Infinite F200 PRO, Tecan Group Ltd., Männedorf, Switzerland) Cell metabolic activity was calculated as percentage compared to the control group (considered as 100%), according to Equation (1):(1) % Cell metabolic activity=Abs of sample−Abs blank/Abs of control−Abs blank×100

[2] = system: MeWo cells; experiment: Time-Lapse Live-Cell Imaging of 2D MeWo culture; assay type: cell-based, human; details: 20 μM
Procedure: MeWo culture was performed using Time-Lapse Live-Cell Imaging System formed by a Bold Line Top Stage Incubator for 35 mm Petri dishes (H301-T UNIT BL; Okolab S.r.l., Pozzuoli, Italy), that allows the acquisition of the same field along the culture time in fixed culture point mapped by the fully automated stage. The incubator has independent control of gas (CO2/O2), humidity and temperature, and ensured an environment with 37 °C of temperature and 5% of CO2 atmosphere. The system allows acquisition in brightfield and fluorescence. All images of different fields within the culture chamber were achieved automatically, using Olympus IX83 time-lapse microscope by motorized stage and CCD monochrome camera (mod. XM10, Olympus, Segrate, Italy), and with all operations under the control of the X-Excellence advanced live-cell imaging software (version 2.0, Olympus Inc., Segrate, Italy). In our case, cell images were captured in brightfield using a 10× objective every 4 h intervals. The related videos reported in Supplementary Materials were generated with windows movie maker software (version 2.0, Microsoft) starting from the acquired frames.

[3] = system: MeWo cells; experiment: Apoptosis by Annexin V / propidium iodide flow cytometry; assay type: cell-based, human; details: 20 μM
Procedure: Annexin V FITC Apoptosis Detection Kit (Cat. […] Then, 5 μL of Annexin V FITC Conjugate and 5 μL of propidium Iodide PE Solution were added to 100 μL of the cell suspension (1 × 10^6 cells/mL). After incubation for 15 min at room temperature with light protection, 400 μL of Annexin V Binding Solution was added for flow cytometry analysis.

[4] = system: histone H2AX; experiment: Western blot of histone H2AX phosphorylation in MeWo cells; assay type: cell-based, human; details: 20 μM
Procedure: (§3) Human melanoma cells (MeWo; ATCC®, HTB-65^TM) were grown in 100 mm Petri Dishes at a density of 1.5 × 10^4 cells/cm^2 and treated with 20 μM of AuM1 (5′-15′-30′-1 h) and AgM1 (5′-15′-30′-1 h-24 h). After treatments, cells were harvested and lysed in RIPA buffer (NaCl 150 mM, 1% triton X-100 pH 8.0, 0.5% sodium deoxycholate, 0.1% SDS, 50 mM Tris, pH 8.0), supplemented with protease inhibitors cocktail and phosphatase inhibitors (Merck), 1 h on ice. Lysates were then centrifuged for 30 min at 15,000× g and supernatant were transferred to a new 1.5 mL tube. Protein amount was determined by Bradford assay (Bio-Rad, Hercules, CA, USA) and 15 μg of total protein extracts were separated by SDS–PAGE gels and transferred onto nitrocellulose membranes. […] Immunoreactivity was detected by sequential incubation with appropriate horseradish peroxidase-conjugated secondary antibodies (Merck) for 1 h at room temperature and Pierce ECL detection reagents (Thermo Scientific, Rockford, IL, USA) on an X-ray film. […] The area under the curves, each relative to a band, was determined and the background was subtracted from the calculated values.

[5] = system: p-ERK 1/2; experiment: Western blot of ERK phosphorylation in MeWo cells; assay type: cell-based, human; details: 20 μM
Procedure: as §3

[6] = system: MeWo cells; experiment: Cell cycle analysis by DNA content (propidium iodide) flow cytometry; assay type: cell-based, human; details: 48 h
Procedure: Human melanoma cells (MeWo, HTB-65^TM; ATCC®, Manassas, VA, USA) were grown in 24-well plates at a density of 1 × 10^4 cells/cm^2 and treated with AuM1 (at 1 μM and 5 μM) and AgM1 (at 10 μM and 20 μM) for 24 h and 48 h. After treatments, cells were transferred in 15 mL polypropylene V-bottomed tubes, rinsed twice in ice cold PBS, and stained in freshly prepared PBS buffer containing 1 mg/mL propidium iodide (PI) (Merck Life Science S.r.l., Milan, Italy), 110,000 U/mL RNase A (Merck) and 0.1% Triton X-100 (Merck Life Science S.r.l., Milan, Italy). Cells were incubated 30 min at 4 °C in the dark and analysed with a BD FACSVerse flow cytometer (Becton Dickinson, BD, Franklin Lakes, NJ, USA) counting 1 × 10^4 events per sample. G1, S and G2/M cell cycle phase percentages were analysed by ModFit LT software (version 3.0).

[7] = Hydrolytic stability by 1H-NMR; assay type: physicochemical; details: D2O-10% of DMSO-d6; 0 h, 2 h, 4 h, 24 h, 48 h and 72 h
Excerpt: 10% of DMSO-d6, following the procedure in ref. [23]. Figures S3–S6 show the 1H-NMR […]
time. These preliminary studies can be reasonably extended to all synthesized complexes because they have a similar structure. Thus, it is possible to affirm th at these complexes are […]
(1 picture or pasted object on this page, not shown here)

[8] = system: HaCaT cells; experiment: MTT selectivity study on HaCaT non-cancerous cell line; assay type: cell-based, human; details: 5 μM, 48 h
Procedure: as §1, §2

[9] = system: MeWo 3D culture; experiment: Live/Dead assay on 3D MeWo cultures (spheroids); assay type: cell-based, human; details: 3D MeWo culture, 5 μM, 24 h, semi-quantitative
Excerpt: High density 3D cultures were obtained using 96-well ultra-low attachment microplates (Corning, Manassas, VA, USA). Briefly, MeWo cells were resuspended at a density of 500.000 cells/mL. […] For the cell viability assay, the average value of 10 3D-systems (n = 3) were considered.
Cell viability of 3D cultures was detected by fluorescence Live/Dead assay after cellular aggregate formation. Calcein AM solution (Cat. no C1359, Sigma-Aldrich) was used to stain live cells, while cell membrane-impermeable Ethidium homodimer I solution (Cat. no E1903, Sigma-Aldrich) for nuclei of dead cells.

[10] = Thermal stability; assay type: physicochemical; details: decompose before melting
[11] = MeWo, MTT, 24 h of treatment, read-out: IC50 24 h
[12] = MeWo, MTT, 48 h of treatment, read-out: IC50 48 h
[13] = 5 μM, screening of derivatives, MTT

SMILES	inhibition of MeWo viability [1]	reduction of cell viability ([1]; MeWo, 10 μM, 48 h)	decrease in cell viability ([1]; MeWo, 48 h)	IC50 [1, 11]	IC50 [1, 12]	time of treatment after which cell death was observed [2]	hydrolytic stability (1H-NMR spectra over time) [7]	red signal (dead cells), Live/Dead assay [9]	also measured
C[n+]1ccn(CC(O)c2ccccc2)[c]1[Ag-][I] (racemic) [AgL20]	able to inhibit MeWo viability	about 10%	more than 50%	~19.4 µM	18.3 µM	> 96 h			change of cell viability (in words) ([1]; MeWo, 10 μM): apparent increase in cell viability
C[n+]1c(Cl)c(Cl)n(CC(O)c2ccccc2)[c]1[Ag-][I] (racemic) [AgM1]	able to inhibit MeWo viability	about 10%	more than 50%	15.4 µM	14.8 µM	96 h			reduction in cell viability ([1]; MeWo, 1 μM, 48 h): 30%; Minimum Inhibitory Concentration (MIC) ([1]; MeWo, 48 h): 1 µM; apoptotic cells ([3]; 96 h of treatment): ~6.7%; phosphorylation of histone H2AX ([4]; at 5'-30'-1 h): significantly increase; ERK phosphorylation (p-ERK) [5]: pronounced and significant decrease; cell cycle progression ([6]; 20 μM): G0/G1 phase cell cycle arrest
C[n+]1ccn(CC(O)c2ccccc2)[c]1[Au-][Cl] (racemic) [AuL20]	able to inhibit MeWo viability	about 10%	25%	~24.6 µM	31.1 µM	> 40 h			change of cell viability (in words) ([1]; MeWo, 10 μM): apparent increase in cell viability
C[n+]1c(Cl)c(Cl)n(CC(O)c2ccccc2)[c]1[Au-][Cl] (racemic) [AuM1]	able to inhibit MeWo viability		more than 50%	5.48 µM	3.12 µM	8 h	no changes are observed	45%	MeWo viability ([1]; 5 μM, 48 h): 30%; MeWo viability reduction ([1]; 5 μM, 48 h): 70%; reduction of cell viability ([1]; MeWo, 48 h, concentration not restated, by context 10 μM): 95%; apoptotic cells ([3]; 8 h of exposure, control 11.7%): 63.8%; HaCaT viability [8]: 70%; selectivity MeWo vs HaCaT (in words) [8]: most selective; phosphorylation of histone H2AX ([4]; already after 5 min (5'-15'-30'-1 h)): significant and marked increase; ERK phosphorylation (p-ERK) [5]: pronounced and significant decrease; cell cycle progression ([6]; 5 μM): G0/G1 phase cell cycle arrest
Cn1c(Cl)c(Cl)[n+](CC(O)c2ccccc2)[c]1[Ag-][O]C(=O)CNC(=O)OC(C)(C)C (stereo not drawn) [AgM1Gly]							no changes are observed		thermally stable up to temperature [10]: around 150 °C
CC(C)(C)OC(=O)N[C@@H](Cc1ccccc1)C(=O)O.CN1[CH-]N(CC(O)c2ccccc2)C(Cl)=C1Cl.[Au+] [AuM1Phe]							no changes are observed	60%	
CC(C)(C)OC(=O)NCC(=O)[O-].[Ag+] [GlyAg, Boc-Glycine silver salt]									MeWo viability reduction [1, 13]: up to 80%
CC(C)(C)OC(=O)N[C@@H](Cc1ccccc1)C(=O)[O-].[Ag+] [PheAg, Boc-L-Phenylalanine silver salt]							no changes are observed	50%	MeWo viability reduction [1, 13]: up to 80%
N.N.[Cl][Pt][Cl] [cisplatin, reference compound]									inhibition of MeWo cultures ([1]; even at 20 μM): not inhibited
